From paper PMC6201908, “Affinity, potency, efficacy, and selectivity of neurokinin A analogs at human recombinant NK2 and NK1 receptors” (PLoS ONE, 2018)
pEC50, pKi: −log10 of the molar value. Like-named read-outs stand apart in the source and are kept apart here. Non-standard residues stand in square brackets, D forms with d. Residues, ends and D or L forms follow the SMILES beside them. NMeL = CN[C@@H](CC(C)C)C(=O)O; Nle = CCCC[C@H](N)C(=O)O; βAla = NCCC(=O)O

What was measured:
[1] = target: T1, human recombinant NK2 receptors (Homo sapiens, UniProt P21452); assay: cell-based; conditions: for NK1/NK2 ratio of EC50s for intracellular calcium response: NK1 EC50 / NK2 EC50
T1 sequence (P21452 1-398): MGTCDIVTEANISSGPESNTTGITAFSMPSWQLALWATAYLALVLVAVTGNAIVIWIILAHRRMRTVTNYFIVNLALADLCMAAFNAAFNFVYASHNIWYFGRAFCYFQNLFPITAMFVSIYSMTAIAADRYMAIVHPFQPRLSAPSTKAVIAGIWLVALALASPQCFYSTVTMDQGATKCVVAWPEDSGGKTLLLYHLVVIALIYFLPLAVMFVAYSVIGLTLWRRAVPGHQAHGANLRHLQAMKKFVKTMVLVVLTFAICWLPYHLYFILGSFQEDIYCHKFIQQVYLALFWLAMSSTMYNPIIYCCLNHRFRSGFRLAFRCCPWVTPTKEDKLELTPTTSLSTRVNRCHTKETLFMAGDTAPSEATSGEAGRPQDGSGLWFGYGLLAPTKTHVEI
Protocol: (§1) Human recombinant NK2 and NK1 receptors were generated using stably transfected CHO cells (CHO-hNK2 and CHO-hNK1, respectively). Human NK2 or NK1 receptor expressing vectors from Genecopeia (Rockville, USA) were transfected in CHO cells using the standard FuGENE protocol and cells were selected using 450 μg/mL geneticin (G418). Clones expressing the receptors were selected by functional coupling to calcium using FLIPR and a single clone for each receptor subtype was selected for expansion and stable cell line generation. Cells were cultured in a humidified incubator with 5% CO2 in F12K medium containing 10% heat inactivated FBS and 450 μg/mL geneticin and passaged on reaching 80–90% confluence.
(§2) The agonist efficacy of the test compounds at recombinant human NK1 or NK2 receptors expressed in CHO cells was assessed by measuring the intracellular calcium response using the calcium-sensitive dye Fluo-4 AM (Eugene, OR, USA) and a Fluorometric Imaging Plate Reader (FLIPR, Molecular Devices, CA, USA). CHO-hNK1 and CHO-hNK2 cells were seeded into black walled clear-bottom 384-well plates at a density of 10,000 and 15,000 cells per well in 50 μL culture media, respectively, and grown overnight at 37°C in a humidified CO2-incubator. Cells were washed in washing buffer using an EMBLA 384 plate washer, leaving 20 μL of buffer per well after the final aspiration. Cells were then incubated at 37°C with the cytoplasmic Ca^2+ indicator Fluo-4 AM (final concentration 1 μM) in assay buffer (20 mM HEPES, 145 mM NaCl, 5 mM KCl, 5.5 mM glucose, 1 mM MgCl2 and 2 mM CaCl2, pH 7.4, 0.05% Pluronic F-127 and 0.1% BSA) containing 2.5 mM probenecid for 45–60 min (cell loading). Cells were then washed 3 times in washing buffer (20 mM HEPES, 145 mM NaCl, 5 mM KCl, 5.5 mM glucose, 1 mM MgCl2 and 2 mM CaCl2, pH 7.4 and 2.5 mM probenecid) using an EMBLA 384 plate washer, leaving 30 μL of buffer in each well after the last wash. Loaded cell plates were transferred to the FLIPR and calcium responses were monitored as described below. […] Concentration response curves of test compounds were generated in duplicate on at least two different occasions from the same stock solutions. Test solutions were prepared from 10 mM stock solutions in DMSO and 1 μL of each solution was stamped into V-bottom assay plates containing 49 μL assay buffer. The final concentration of DMSO was 0.5% in each well.

[2] = target: T2, human recombinant NK1 receptors (Homo sapiens, UniProt P25103); assay: cell-based
T2 sequence (P25103 whole entry): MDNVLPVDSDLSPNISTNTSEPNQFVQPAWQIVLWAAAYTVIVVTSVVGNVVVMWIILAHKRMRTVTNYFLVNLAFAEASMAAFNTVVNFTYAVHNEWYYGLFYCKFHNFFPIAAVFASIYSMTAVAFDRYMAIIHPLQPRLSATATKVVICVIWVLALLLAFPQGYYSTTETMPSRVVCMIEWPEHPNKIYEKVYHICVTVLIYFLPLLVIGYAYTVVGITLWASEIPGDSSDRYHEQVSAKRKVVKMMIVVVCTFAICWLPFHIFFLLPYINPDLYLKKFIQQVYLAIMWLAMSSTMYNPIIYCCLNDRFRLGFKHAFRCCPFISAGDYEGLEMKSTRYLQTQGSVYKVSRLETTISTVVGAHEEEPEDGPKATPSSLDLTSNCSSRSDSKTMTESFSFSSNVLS
Protocol: as §1, §2

[3] = target: T1, human recombinant NK2 receptors; assay: Displacement of [^125I]-NKA binding to CHO-hNK2 membranes; conditions: for pKi: [^125I]-NKA binding pKi; for [^125I]-NKA binding Slope: Hill slope of displacement curve; for NK1/NK2 ratio of Ki values: NK1 [^3H]-Septide Ki / NK2 [^125I]-NKA Ki
[4] = target: T2, human recombinant NK1 receptors; assay: Displacement of [^3H]-Septide binding to CHO-hNK1 membranes (septide site); conditions: for [^3H]-Septide binding pKi / [^3H]-Septide binding Slope: 5.0 nM [^3H]-Septide, 23°C, 1 h, mean ± SD; for [^3H]-Septide binding pKi: CHO-hNK1 membranes 20 μg/well; for [^3H]-Septide binding Slope: Hill slope of displacement curve
Protocol: Protein expression was induced by addition of 5 mM sodium butyrate to the culture medium. […] The cell suspension was collected, placed on ice and centrifuged for 5 min at 4°C and 1200 rpm in a Beckman GS6R centrifuge. After removal of the supernatant the cell pellet was washed and collected by re-suspension in PBS and centrifugation. The final pellet was weighed and frozen at -80°C until use. Frozen pellets were thawed and homogenized in 10 volumes (w/v) of membrane preparation buffer (50 mM HEPES pH 7.4, 1 mM EDTA, 50 μg/mL bacitracin and protease inhibitors) using a Polytron Ultraturrax (twice for 15 s per cycle). The homogenate was centrifuged for 20 min at 4°C and 18500 rpm in a SL-50T Sorvall rotor and the pellet was re-suspended in membrane preparation buffer and re-homogenized as before. After centrifugation for 20 min at 4°C and 18500 rpm, the pellets were re-suspended in 5 volumes of membrane preparation buffer and divided into aliquots before freezing at -80°C. Protein concentration was determined using BioRad Protein Assay (Milan, Italy) with a BSA standard curve. Stock solutions of test compounds (10 mM) were prepared in DMSO and stored at -20°C until use. […] The goodness of fit between One-Site and Two-Site models was examined using Akaike's Information Corrected Criteria (AICC; [23]) in SAS v9.4 (SAS Institute, Cary NC) in order to select the best model for the data generated. […] Data from displacement experiments were plotted as the log [inhibitor concentration] (X axis) versus response expressed as TB in cpm (Y axis).

[5] = Intracellular Ca^2+ pEC50, CHO-hNK2 cells, mean ± SD
[6] = NK2 EC50 intracellular calcium response, CHO-hNK2 cells
[7] = CHO-hNK2 cells, % of maximal response observed with NKA, mean ± SD
[8] = CHO-hNK1 cells, % of maximal response observed with substance P, mean ± SD
[9] = 0.1 nM [^125I]-NKA, CHO-hNK2 membranes 6 μg/well, 23°C, 3 h, mean ± SD
[10] = 0.1 nM [^125I]-NKA, 23°C, 3 h, mean ± SD
[11] = Intracellular Ca^2+ pEC50, CHO-hNK1 cells, mean ± SD
[12] = NK1 EC50 intracellular calcium response, CHO-hNK1 cells

Row | SMILES | pEC50 [1, 5] | pEC50 [1, 6] | Intracellular Ca^2+ % Max [2] | pKi [3] | [^3H]-Septide binding pKi [4] | [^3H]-Septide binding Slope [4] | pKi ([4]; displacement of [^3H]-Septide binding, read-out: NK1 [^3H]-Septide Ki) | Intracellular Ca^2+ % Max [1, 7] | NK1/NK2 ratio of EC50s for intracellular calcium response [1] | Intracellular Ca^2+ % Max [2, 8] | Intracellular Ca^2+ pEC50 ([2]; CHO-hNK1 cells, mean ± SD) | Difference between pEC50 and pKi values ([2]; NK1 receptors, calcium response vs [^3H]-Septide binding) | [^125I]-NKA binding pKi [3, 9] | [^125I]-NKA binding Slope [3, 10] | NK1/NK2 ratio of Ki values [3] | Fold more selective for NK2 over septide site of NK1 receptor compared with NKA (binding) ([3]; from Ki ratios) | pKi [3, 9] | pEC50 [2, 11] | pEC50 [2, 12] | Intracellular Ca^2+ % Max [1]
1 | CSCC[C@H](NC(=O)[C@H](CC(C)C)NC(=O)CNC(=O)[C@@H](NC(=O)[C@H](Cc1ccccc1)NC(=O)[C@H](CO)NC(=O)[C@@H](N)CC(=O)O)C(C)C)C(N)=O [NKA(4–10), Asp-Ser-Phe-Val-Gly-Leu-Met-NH2] | 8.99 | 8.99 | 117.4 ± 12.8% | 8.63 |  |  |  |  |  |  |  |  |  |  |  |  |  |  |  | 
2 | CCCC[C@H](NC(=O)[C@H](CC(C)C)N(C)C(=O)CNC(=O)[C@@H](NC(=O)[C@H](Cc1ccccc1)NC(=O)[C@H](CCCNC(=N)N)NC(=O)[C@@H](N)CC(=O)O)C(C)C)C(N)=O [[Arg^5,MeLeu^9,Nle^10]-NKA(4-10), Asp-Arg-Phe-Val-Gly-(NMe-Leu)-Nle-NH2] (H-DRFVG[NMeL][Nle]-NH2; N-terminus assumed) | 10.08 |  |  |  | 6.48 ± 0.05 | -0.89 ± 0.13 | 6.48 | 89.0 ± 15.5% | 70 | 100.4 ± 1.5% | 8.23 ± 0.32 | 56 fold | 9.23 ± 0.19 | -0.86 ± 0.09 | 561 | more than 28 fold |  |  |  | 
3 | CSCC[C@H](NC(=O)[C@H](CC(C)C)N(C)C(=O)CNC(=O)[C@@H](NC(=O)[C@H](Cc1ccccc1)NC(=O)[C@H](CCCNC(=N)N)NC(=O)[C@@H](N)CC(=O)O)C(C)C)C(N)=O [[Arg^5,MeLeu^9]-NKA(4-10), Asp-Arg-Phe-Val-Gly-(NMe-Leu)-Met-NH2] (H-DRFVG[NMeL]M-NH2) | 9.79 |  |  |  | 7.68 ± 0.16 | -0.75 ± 0.03 |  | 111.5 ± 3.7% | 2 | 99.9 ± 13.3% | 9.52 ± 0.29 |  |  | -0.90 ± 0.07 | 174 |  | 9.90 |  |  | 
4 | CCCC[C@H](NC(=O)[C@H](CC(C)C)NC(=O)CNC(=O)[C@@H](NC(=O)[C@H](Cc1ccccc1)NC(=O)[C@H](CCCNC(=N)N)NC(=O)[C@@H](N)CC(=O)O)C(C)C)C(N)=O [[Arg^5,Nle^10]-NKA(4–10), Asp-Arg-Phe-Val-Gly-Leu-Nle-NH2] (H-DRFVGL[Nle]-NH2) | 9.70 | 9.70 |  |  |  |  |  |  |  |  |  |  |  |  |  |  |  | 8.77 | 8.77 | 
5 | CCCC[C@H](NC(=O)[C@H](CC(C)C)NC(=O)CCNC(=O)[C@@H](NC(=O)[C@H](Cc1ccccc1)NC(=O)[C@H](CCCNC(=N)N)NC(=O)[C@@H](N)CC(=O)O)C(C)C)C(N)=O [[Arg^5,β-Ala^8,Nle^10]-NKA(4–10), Asp-Arg-Phe-Val-[β-Ala]-Leu-Nle-NH2] (H-DRFV[βAla]L[Nle]-NH2) | 8.94 | 8.94 | 104.9 ± 13.2% |  |  |  |  |  |  |  |  |  |  |  |  |  |  | 7.53 | 7.53 | 81.4 ± 1.2%
